Values of other authors, collected in patent US7671073B2, “Cyclohexylalanine derivatives as dipeptidyl peptidase-IV inhibitors for the treatment or prevention of diabetes” (Merck Sharp & Dohme Corp., priority 2004, dated 2010).
Blank lines part the entries; values can stand above or below the compound they belong to.

Legend:
[1] = rats; Transplantation, 63: 1495-1500 (1997)
[2] = mouse, cyclophosphamide-induced neutropenia; WO 99/56753
DP-IV = target: T1, DP-IV (Homo sapiens, UniProt P27487)
T1 construct: GRF is rapidly degraded in plasma to GRF[3-44]
T1 sequence (P27487 whole entry): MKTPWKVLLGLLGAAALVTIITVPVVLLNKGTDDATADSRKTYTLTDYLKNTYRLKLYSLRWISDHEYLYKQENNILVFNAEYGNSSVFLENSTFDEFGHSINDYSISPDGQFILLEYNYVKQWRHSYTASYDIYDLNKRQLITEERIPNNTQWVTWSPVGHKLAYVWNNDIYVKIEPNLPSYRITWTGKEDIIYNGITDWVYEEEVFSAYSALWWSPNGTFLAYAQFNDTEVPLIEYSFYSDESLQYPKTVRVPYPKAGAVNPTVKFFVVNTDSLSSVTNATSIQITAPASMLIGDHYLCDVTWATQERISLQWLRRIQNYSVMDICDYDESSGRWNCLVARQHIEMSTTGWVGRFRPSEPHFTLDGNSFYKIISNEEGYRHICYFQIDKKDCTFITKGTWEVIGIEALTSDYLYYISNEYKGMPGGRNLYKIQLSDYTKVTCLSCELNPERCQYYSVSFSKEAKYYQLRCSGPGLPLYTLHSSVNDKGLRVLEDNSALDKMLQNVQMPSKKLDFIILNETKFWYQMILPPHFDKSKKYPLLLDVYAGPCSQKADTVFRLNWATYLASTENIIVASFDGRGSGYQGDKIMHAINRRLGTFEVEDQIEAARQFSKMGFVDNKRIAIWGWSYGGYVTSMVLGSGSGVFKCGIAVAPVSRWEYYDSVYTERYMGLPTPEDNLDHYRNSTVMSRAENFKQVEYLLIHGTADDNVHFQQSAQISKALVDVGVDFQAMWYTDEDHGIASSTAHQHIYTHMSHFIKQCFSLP

Compound: CC(C)N1CCC(c2ccccc2)(c2ccccc2)CC1 [Prodipine, Pro-Pro-diphenyl-phosphonate]
cardiac allograft survival [1]: double cardiac allograft survival in rats from day 7 to day 14

Compound: CC(C)[C@H](N)C(=O)N1CCC[C@H]1B(O)O [Val-Boro-Pro]
hematopoiesis [2]: stimulated hematopoiesis

degradation of GRF to GRF[3-44] in plasma (DP-IV): prevented
Compound: diprotin A
